From ChEMBL document CHEMBL6182843, “Actinomycetes: Treasure trove for discovering novel antibiotic candidates” (2025) come the findings set out here.

In brackets after ≈: the same amount, converted by molar mass.

What all share (assay type): functional
The subject of test [1] is Xanthomonas oryzae. The test can be described thus: Antibacterial activity against Xanthomonas oryzae.
Test [2] has as its system Xanthomonas campestris. The test can be described thus: Antibacterial activity against Xanthomonas campestris.
Test [3] relates to Staphylococcus aureus. The test can be described thus: Antibacterial activity against methicillin-resistant Staphylococcus aureus ATCC 43300 assessed as reduction in bacterial growth measured for 12 hrs by CLSI protocol based broth microdilution method.
For test [4], the system named is Bacillus cereus. The test can be described thus: Antibacterial activity against Bacillus cereus.
The subject of test [5] is Enterococcus faecalis. The test can be described thus: Antibacterial activity against Vancomycin-resistant Enterococcus faecalis ATCC 51299.
The test system of test [6] is Staphylococcus aureus. The test can be described thus: Antibacterial activity against Staphylococcus aureus ATCC 33591.
Test [7] relates to Escherichia coli. The test can be described thus: Antibacterial activity against […] Escherichia coli ATCC 25922 assessed as reduction in bacterial growth measured for 12 hrs by CLSI protocol based broth microdilution method.
In test [8] the test system is Staphylococcus epidermidis. The test can be described thus: Antimicrobial activity against Staphylococcus epidermidis ATCC 12228 assessed as reduction in microbial growth incubated for 16 hrs by CLSI protocol based Mueller-Hinton broth micro-dilution method.
Test [9] concerns Staphylococcus aureus. The test can be described thus: Antimicrobial activity against Staphylococcus aureus ATCC 29213 assessed as reduction in microbial growth incubated for 16 hrs by CLSI protocol based Mueller-Hinton broth micro-dilution method.
The subject of test [10] is Staphylococcus aureus. The test can be described thus: Antibacterial activity against Staphylococcus aureus.

Turning to `CO[C@H]1/C=C\C=C(/C)C(=O)NC2=CC(=O)C(O)=C(C[C@@H](C)C[C@H](OC)[C@H](O)[C@@H](C)/C=C(\C)[C@@H]1OC(N)=O)C2=O`, the MIC in test [1] was found to be 0.125 µg/mL (≈ 0.229 µM); in test [2], 0.25 µg/mL (≈ 0.457 µM).

In the case of `CO[C@H]1C[C@H](C)Cc2cc(O)cc(c2)NC(=O)/C(C)=C/CC[C@H](OC)[C@@H](OC(N)=O)/C(C)=C/[C@H](C)[C@H]1O`, the MIC in test [1] was 0.25 µg/mL (≈ 0.482 µM); in [2], 2.03 µg/mL (≈ 3.91 µM).

For the molecule `CC(=O)c1cc(C)c(C)n1CCc1c[nH]c2ccccc12`, in test [3], the MIC came out at 25 µg/mL (≈ 89.2 µM).

`CC1=C(CC2=C(O)C(=O)c3cc(O)c(C)c(O)c3C2=O)CCC(C)(C)C1` displayed an MIC in test [4] of 6.25 µg/mL (≈ 17.5 µM).

Take `COc1cc2oc3c(O)c4c(c(O)c3c(=O)c2cc1O)-c1c(cc2cc(C)n(CCO)c(=O)c2c1O)CC4`: the minimum inhibitory concentration (MIC) in test [5] and in test [6] was 0.25 µg/mL (≈ 0.483 µM) throughout.

Consider `COC(=O)[C@]1(O)C[C@@H](C)C[C@H](OC)[C@H](O)[C@@H](C)C/C=C(/C)[C@H](OC(N)=O)[C@@H](OC)/C=C\C=C(/C)C(=O)NC2=CC(=O)O[C@]21O`, for which the MIC turned out to be 2.03 µg/mL (≈ 3.25 µM) in test [1] and 16.2 µg/mL (≈ 26 µM) in [2].

Take `CC(=O)NCCc1c(CC2c3ccccc3[C@]3(O)CCN(C(C)=O)[C@@]23O)[nH]c2ccccc12` (stereo partly specified): the MIC in [7] was determined as 13 µg/mL (≈ 29 µM); in test [3], 25 µg/mL (≈ 55.9 µM).

Turning to `COc1cc2oc3c(c(=O)c2cc1O)C(=O)C1=C(CCc2cc4cc(C)n(CCO)c(=O)c4c(O)c21)C3=O`, the values for the MIC in [5] and in [6] were 0.25 µg/mL (≈ 0.485 µM) and 0.12 µg/mL (≈ 0.233 µM), respectively.

Turning to `C/C=C1\NC(=O)[C@@H](CC)NC(=O)CNC(=O)[C@@](C)(C(C)=O)NC(=O)[C@H](Cc2c[nH]c3ccc(O)c(OC)c23)NC(=O)c2csc(n2)[C@@H](C)NC(=O)CNC1=O`, the MIC in test [8] stood at 12.5 µM; in [9], 200 µg/mL.

As for `C/C=C1\NC(=O)[C@@H](C)NC(=O)CNC(=O)[C@@](C)(C(C)=O)NC(=O)[C@H](Cc2c[nH]c3cccc(OC)c23)NC(=O)c2csc(n2)[C@@H](C)NC(=O)CNC1=O`, the MIC in test [8] was 50 µM; in test [9], 12.5 µg/mL.

Take `CC(=O)NCCc1c(CN2c3ccccc3[C@@]3(O)CCN(C(C)=O)[C@]23O)[nH]c2ccccc12`: the minimal inhibitory concentration (MIC) in [7] was 25 µg/mL (≈ 55.7 µM); in test [3] it was 7 µg/mL (≈ 15.6 µM).

For `CC[C@H]1NC(=O)CNC(=O)[C@@](C)(C(C)=O)NC(=O)[C@H](Cc2c[nH]c3cccc(OC)c23)NC(=O)c2csc(n2)[C@@H](C)NC(=O)CNC(=O)/C(=C/CO)NC1=O`, the MIC is 1.6 µM in [8] and 25 µg/mL in [9].

Regarding `COc1cc2oc3c(O)c4c(c(O)c3c(=O)c2cc1O)-c1c(cc2cc(C)[nH]c(=O)c2c1O)CC4`, the MIC in test [5] and in test [6] was 0.03 µg/mL (≈ 0.0634 µM) throughout.

Turning to `C/C=C1\NC(=O)[C@@H](CC)NC(=O)CNC(=O)[C@@](C)(C(C)=O)NC(=O)[C@H](Cc2c[nH]c3cccc(OC)c23)NC(=O)c2csc(n2)[C@@H](C)NC(=O)CNC1=O`, the MIC is 1.6 µM in test [8] and 3.1 µg/mL in test [9].

As to `COC(=O)[C@@]1(O)C[C@@H](C)C[C@H](OC)[C@H](O)[C@@H](C)C/C=C(/C)[C@H](OC(N)=O)[C@@H](OC)/C=C\C=C(/C)C(=O)NC2=CC(=O)O[C@]21O`, the MIC worked out at 4.06 µg/mL (≈ 6.5 µM) in test [1] and 8.12 µg/mL (≈ 13 µM) in test [2].

Consider `COc1cc2oc3c(c(=O)c2cc1O)C(=O)C1=C(CCc2cc4cc(C)[nH]c(=O)c4c(O)c21)C3=O`, for which the figures for the MIC in [5] and in [6] were 0.25 µg/mL (≈ 0.53 µM) and 0.12 µg/mL (≈ 0.255 µM), respectively.

Take `COC1=C(CC2=C(C)CC(C)(C)CC2)C(=O)c2c(cc(O)c(C)c2O)C1=O`: the minimum inhibitory concentration (MIC) in test [4] stood at 50 µg/mL (≈ 135 µM).

Turning to `CC(=O)[C@@H](C)N(CCc1c[nH]c2ccccc12)C(C)=O`, the MIC in [7] is 7 µg/mL (≈ 25.7 µM).

For the molecule `Cc1c(O)cc2c(c1O)C(=O)C(C[C@@]13CCC(C)(C)C[C@]1(C)O3)=C(Cl)C2=O`, the MIC in test [10] was determined as 25 µg/mL (≈ 64 µM); in [4], 12.5 µg/mL (≈ 32 µM).

With `COc1c(O)cc2cc1C[C@@H](C)C[C@H](OC)[C@H](O)[C@@H](C)/C=C(\C)[C@H](OC(N)=O)[C@@H](OC)CC/C=C(\C)C(=O)N2` [REBLASTATIN], the MIC was 4.06 µg/mL (≈ 7.4 µM) in test [1] and 0.125 µg/mL (≈ 0.228 µM) in [2].
